Values joined by “and” are separate entries in the source; they are usually repeats but may differ in a detail not shown here. Identical values can stand only once.
Tests used:
Assay type in all cases: cell-based
aerobic plate count = test: Aerobic plate count in sectioned and formed ham (Example 7); settings: after 8 weeks storage at 1.11° C., no phosphate: 6.03
Experimental: (§1) Five 16 Kg batches of restructured ham were prepared. Fresh whole pork hams were skinned, boned, sectioned into muscles, and each muscle trimmed to remove all trimmable connective tissue and subcutaneous and intramuscular fat. […] The pumped muscles were macerated manually to facilitate brine absorption; tumbled; and stuffed into fibrous casings in 908.0 g chubs. The hams were weighed and then cooked to 71.1° C. internal temperature. Cooked hams were chilled for 24 hr at 0° C., vacuum packaged, and stored at 1.11° C. for 8 weeks. Sample homogenate was prepared by blending 11 g of ham with 99 mL of sterile 0.1% peptone diluent and agitating for 1 min in a stomacher. Serial dilutions were prepared by transferring 1.0 mL aliquots of the sample diluent to 9 mL of sterile 0.1% peptone. […] Duplicate samples were analyzed for each treatment.

lactic acid organisms = test: Growth of lactic acid organisms in sectioned and formed ham (Example 7); settings: after 8 weeks storage at 1.11° C., no phosphate: 7.42
Experimental: as §1

psychrotrophic organisms [1] = test: Growth of psychrotrophic microorganisms in sectioned and formed ham (Example 7); settings: after 8 weeks storage at 1.11° C., no phosphate: 7.79
Experimental: as §1

psychrotrophic organisms [2] = test: Growth of psychrotrophic microorganisms in sectioned and formed ham (Example 6); settings: 0.4% by weight phosphate in cooked ham; after 8 weeks storage at 0° C.; no phosphate: 3.97; listed as Sodium tripolyphosphate (pH about 9.8)
Experimental: Seven batches 40-pound (about 18.2 Kg) of cooked sectioned and formed boneless ham were manufactured to meet the following specifications: moisture, 71.2-73.7%; protein, 18.1-19.8%; fat, 3.66-6.31%; salt, 2.0%; and phosphate, 0.4%. The hams were manufactured to conform to the standards of identity for a cooked ham with a minimum of 18.5% protein fat free (PFF). The phosphate salts (0.4% by weight) indicated in Table 6 were added to six of the hams. […] After injection, the hams were vacuum-tumbled for 45 min, stuffed into 6.5-in (about 16.5 cm) diameter fibrous casings, and then cooked to an internal temperature of 71.1° C. Cooked hams were chilled for 8 hr at 0° C., vacuum packaged, and stored at 0° C. for 8 weeks. Sample homogenate was prepared by blending 11 g of ham with 99 mL of sterile 0.1% peptone diluent and agitating for 1 min in a stomacher. Serial dilutions were prepared by transferring 1.0 mL aliquots of the sample diluent to 9 mL of sterile 0.1% peptone. The appropriate dilutions were plated on plate count agar. The plates were incubated at 7° C. for 10 days.

Structure (SMILES) | log (colony forming units)/g (aerobic plate count; 1.0% phosphate in ham) | log (colony forming units)/g (lactic acid organisms; 1.0% phosphate in ham) | log (colony forming units)/g (psychrotrophic organisms [1]; 1.0% phosphate in ham) | log (colony forming units)/g (aerobic plate count; 0.4% phosphate in ham) | log (colony forming units)/g (lactic acid organisms; 0.4% phosphate in ham) | log (colony forming units)/g (psychrotrophic organisms [2]) | log (colony forming units)/g (psychrotrophic organisms [1]; 0.4% phosphate in ham)
O=P([O-])(O)OP(=O)([O-])O.[Na+].[Na+] [Sodium acid pyrophosphate] | 4.49 log (colony forming units)/g | 5.38 log (colony forming units)/g | 5.28 log (colony forming units)/g | – | – | – | –
O=P1([O-])OP(=O)([O-])OP(=O)([O-])OP(=O)([O-])OP(=O)([O-])OP(=O)([O-])O1.[Na+].[Na+].[Na+].[Na+].[Na+].[Na+] [Sodium hexametaphosphate] | 4.55 log (colony forming units)/g | 6.24 log (colony forming units)/g | 4.62 log (colony forming units)/g | – | – | – | –
O=P(O)(O)OP(=O)(O)OP(=O)(O)O [Sodium tripolyphosphate] | 5.67 log (colony forming units)/g | 6.70 log (colony forming units)/g | 5.91 log (colony forming units)/g | 6.69 log (colony forming units)/g | 6.62 log (colony forming units)/g | 1.58 log (colony forming units)/g and 1.84 log (colony forming units)/g | 7.8 log (colony forming units)/g
